Values of other authors, collected in US20200129499A1, “COMBINATION OF TASQUINIMOD OR A PHARMACEUTICALLY ACCEPTABLE SALT THEREOF AND A PD-1 AND/OR PD-L1 INHIBITOR, FOR USE AS A MEDICAMENT” (ACTIVE BIOTECH AB, priority 2015, published 2020).

Tested on: metastatic bladder cancer
Conditions: phase 1a study, cited from earlier work

Substance: atezolizumab: anti-PD-L1 human IgG1 antibody (Roche)
- people alive at 1 year (people with the highest levels of PD-L1 expression): 57%
- Complete responses (CRs) (metastatic bladder cancer): 20%
